Laboratory results from PMC10116495 (Journal of the American Chemical Society, 2023).
Residues, ends and D or L forms follow the SMILES beside them. *: point of attachment. Cbz = O=C(OCc1ccccc1)*

Tests used:
NSD2 [1] = assay: MG132, MLN4924 and TAK243 inhibitor assay; assay type: cell-based; conditions: U2OS cells, 6 h, 10 μM MG132, 1 μM MLN4924 or 1 μM TAK243
NSD2-PWWP1 = target: T1, NSD2-PWWP1 (Homo sapiens, UniProt O96028); conditions: previously shown by the authors; cited from earlier work
T1 sequence (O96028 222-286 limits assumed): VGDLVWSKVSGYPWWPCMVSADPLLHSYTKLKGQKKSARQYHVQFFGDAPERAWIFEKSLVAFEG

[2] = target: T2, NanoLuc-NSD2-PWWP1 / HaloTag-Ubiquitin (Homo sapiens, UniProt O96028); assay: NanoBRET ubiquitination assay; assay type: cell-based; conditions: compared to UNC6934 or the vehicle
T2 sequence (O96028 222-286 limits assumed): T1 sequence (O96028 222-286 limits assumed)

HEK293 = HEK293 proliferation assay; assay type: cell-based; conditions: 20 μM, 5 days, confluency
U2OS = U2OS proliferation assay; assay type: cell-based; conditions: 20 μM, 5 days, confluency
H3K36me2 [3] = assay: H3K36me2 immunoblot in KMS11 cells; assay type: cell-based
NSD3 = target: T3, NSD3 (Homo sapiens, UniProt Q9BZ95); assay: Global proteomics and immunoblotting of NSD3 in U2OS cells; assay type: cell-based; conditions: 5 μM, 6 h proteomics, confirmed by immunoblotting
T3 sequence (Q9BZ95 1-1437): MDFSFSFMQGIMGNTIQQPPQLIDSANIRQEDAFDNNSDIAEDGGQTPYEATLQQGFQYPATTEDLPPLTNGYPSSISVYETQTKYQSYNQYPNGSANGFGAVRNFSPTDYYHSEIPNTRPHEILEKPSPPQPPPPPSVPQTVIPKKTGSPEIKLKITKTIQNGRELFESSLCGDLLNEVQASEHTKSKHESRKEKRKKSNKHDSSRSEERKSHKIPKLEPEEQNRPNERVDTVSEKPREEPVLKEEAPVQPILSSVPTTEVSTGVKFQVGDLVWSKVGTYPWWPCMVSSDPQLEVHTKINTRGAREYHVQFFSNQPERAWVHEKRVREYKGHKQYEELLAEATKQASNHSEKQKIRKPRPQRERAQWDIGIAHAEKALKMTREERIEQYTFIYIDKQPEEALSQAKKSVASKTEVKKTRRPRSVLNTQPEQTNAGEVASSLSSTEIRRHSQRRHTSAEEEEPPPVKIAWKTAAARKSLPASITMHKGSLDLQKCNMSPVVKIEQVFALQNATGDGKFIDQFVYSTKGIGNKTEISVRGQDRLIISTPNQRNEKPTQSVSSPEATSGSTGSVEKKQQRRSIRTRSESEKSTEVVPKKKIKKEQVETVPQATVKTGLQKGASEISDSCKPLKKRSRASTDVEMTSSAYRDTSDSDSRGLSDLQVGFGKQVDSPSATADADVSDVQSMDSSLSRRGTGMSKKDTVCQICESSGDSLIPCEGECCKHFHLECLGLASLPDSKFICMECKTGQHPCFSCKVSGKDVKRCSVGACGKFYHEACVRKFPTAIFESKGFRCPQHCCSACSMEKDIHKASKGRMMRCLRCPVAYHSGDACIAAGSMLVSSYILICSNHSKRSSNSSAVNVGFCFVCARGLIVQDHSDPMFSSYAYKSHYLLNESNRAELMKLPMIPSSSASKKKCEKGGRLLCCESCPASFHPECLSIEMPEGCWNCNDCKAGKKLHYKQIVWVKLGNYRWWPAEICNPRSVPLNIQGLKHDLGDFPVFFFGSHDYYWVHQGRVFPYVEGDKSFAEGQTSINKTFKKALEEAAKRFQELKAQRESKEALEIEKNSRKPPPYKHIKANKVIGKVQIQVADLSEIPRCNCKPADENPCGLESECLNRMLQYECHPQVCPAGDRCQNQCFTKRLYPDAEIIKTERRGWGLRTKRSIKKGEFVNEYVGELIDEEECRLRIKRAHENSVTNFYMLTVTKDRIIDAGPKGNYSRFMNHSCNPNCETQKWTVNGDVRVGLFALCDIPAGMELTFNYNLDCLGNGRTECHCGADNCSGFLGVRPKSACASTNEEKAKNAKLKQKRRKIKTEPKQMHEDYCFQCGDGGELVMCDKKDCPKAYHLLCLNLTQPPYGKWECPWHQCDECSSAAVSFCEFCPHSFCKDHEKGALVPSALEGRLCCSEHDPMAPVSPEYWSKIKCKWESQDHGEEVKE

H3K36me3 = H3K36me3 immunoblot in KMS11 cells; assay type: cell-based
NSD family members = conditions: immunoblot
NSD2-long [4] = target: T4, NSD2-long (Homo sapiens, UniProt O96028); assay: Western blot of NSD2 in U2OS cells; assay type: cell-based; conditions: 10 μM, without replenishing the compound
T4 sequence (O96028 1-1365): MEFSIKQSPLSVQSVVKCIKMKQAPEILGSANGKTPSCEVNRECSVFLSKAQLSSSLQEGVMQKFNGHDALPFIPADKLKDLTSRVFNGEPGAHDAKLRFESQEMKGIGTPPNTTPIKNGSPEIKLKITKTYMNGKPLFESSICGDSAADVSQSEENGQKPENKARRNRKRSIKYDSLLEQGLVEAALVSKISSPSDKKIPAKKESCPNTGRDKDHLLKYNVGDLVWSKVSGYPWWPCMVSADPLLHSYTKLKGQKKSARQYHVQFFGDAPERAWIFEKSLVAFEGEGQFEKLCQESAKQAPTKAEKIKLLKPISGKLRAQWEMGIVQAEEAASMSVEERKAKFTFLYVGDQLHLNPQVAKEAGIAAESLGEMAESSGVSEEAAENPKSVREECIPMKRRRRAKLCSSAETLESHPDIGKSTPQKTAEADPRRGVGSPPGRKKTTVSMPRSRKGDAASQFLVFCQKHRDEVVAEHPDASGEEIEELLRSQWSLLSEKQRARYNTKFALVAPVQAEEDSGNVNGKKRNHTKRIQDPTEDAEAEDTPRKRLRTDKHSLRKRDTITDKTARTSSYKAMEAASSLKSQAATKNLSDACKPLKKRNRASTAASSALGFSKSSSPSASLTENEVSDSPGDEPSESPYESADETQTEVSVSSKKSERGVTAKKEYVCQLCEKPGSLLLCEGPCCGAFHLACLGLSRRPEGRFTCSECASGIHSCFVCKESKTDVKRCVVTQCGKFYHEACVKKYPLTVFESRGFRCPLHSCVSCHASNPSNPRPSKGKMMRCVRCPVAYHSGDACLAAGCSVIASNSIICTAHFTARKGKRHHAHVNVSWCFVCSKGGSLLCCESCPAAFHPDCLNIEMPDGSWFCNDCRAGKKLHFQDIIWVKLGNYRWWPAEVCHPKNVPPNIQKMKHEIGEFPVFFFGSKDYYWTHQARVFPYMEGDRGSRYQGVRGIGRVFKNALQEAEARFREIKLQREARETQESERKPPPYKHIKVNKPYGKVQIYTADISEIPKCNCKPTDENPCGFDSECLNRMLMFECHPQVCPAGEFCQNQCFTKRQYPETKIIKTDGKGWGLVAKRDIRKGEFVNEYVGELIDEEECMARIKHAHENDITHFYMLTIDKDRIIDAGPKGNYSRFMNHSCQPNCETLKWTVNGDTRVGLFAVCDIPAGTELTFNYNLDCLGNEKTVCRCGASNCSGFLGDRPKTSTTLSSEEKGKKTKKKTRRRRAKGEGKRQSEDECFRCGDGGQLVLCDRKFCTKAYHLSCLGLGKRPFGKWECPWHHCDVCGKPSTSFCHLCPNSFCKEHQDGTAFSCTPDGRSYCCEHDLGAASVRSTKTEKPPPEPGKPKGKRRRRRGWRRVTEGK

KMS11 cells [5] = assay: KMS11 CellTiter-Glo luminescence cell viability assay; assay type: cell-based; conditions: up to 30 μM, 8 days
KMS11 cells [6] = assay: Adhesion assay in KMS11 cells; assay type: cell-based; conditions: 25 μM, 14 days, compared to control (UNC8587)
MM1S cells = assay: MM1S dose-response treatment and proliferation assay; assay type: cell-based; conditions: increasing concentrations, 8 days, trypan blue cell count
NSD2 and H3K36me2 [7] = assay: NSD2 and H3K36me2 immunoblot in RS411 cells; assay type: cell-based; conditions: RS411, NSD2 E1099K, 10 μM, 6 days
MDA-MB-231 = MDA-MB-231 proliferation assay; assay type: cell-based; conditions: 20 μM, 5 days, confluency
NSD2 [8] = target: T5, NSD2 (Homo sapiens, UniProt O96028); assay: In-cell western; assay type: cell-based; conditions: U2OS cells, ICW
T5 sequence (O96028 1-627 limits assumed): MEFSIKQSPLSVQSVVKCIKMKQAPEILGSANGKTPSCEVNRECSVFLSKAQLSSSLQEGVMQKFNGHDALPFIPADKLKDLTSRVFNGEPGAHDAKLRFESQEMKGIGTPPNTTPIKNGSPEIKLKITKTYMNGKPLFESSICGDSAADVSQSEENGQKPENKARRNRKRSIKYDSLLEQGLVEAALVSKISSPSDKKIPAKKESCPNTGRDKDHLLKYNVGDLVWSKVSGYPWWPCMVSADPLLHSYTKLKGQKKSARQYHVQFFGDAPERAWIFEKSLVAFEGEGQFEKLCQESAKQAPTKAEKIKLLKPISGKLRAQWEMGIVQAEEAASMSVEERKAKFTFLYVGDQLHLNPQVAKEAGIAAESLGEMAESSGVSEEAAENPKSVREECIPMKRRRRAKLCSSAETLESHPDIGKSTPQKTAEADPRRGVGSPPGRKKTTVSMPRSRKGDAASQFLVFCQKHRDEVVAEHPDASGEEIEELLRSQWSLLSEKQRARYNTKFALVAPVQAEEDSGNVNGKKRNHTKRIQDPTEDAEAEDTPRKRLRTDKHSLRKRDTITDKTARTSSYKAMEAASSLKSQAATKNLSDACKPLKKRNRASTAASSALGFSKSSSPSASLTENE

NSD2 and H3K36me2 [9] = assay: NSD2 and H3K36me2 immunoblot in MM1S cells; assay type: cell-based; conditions: NSD2 E1099K, 10 μM, 6 days
NSD2 [10] = target: T5, NSD2; assay: Global proteomics; assay type: cell-based; conditions: U2OS cells, 5 μM, 6 h, 7863 quantifiable proteins
NSD2-long [11] = target: T4, NSD2-long; assay: NSD2 immunoblot in KMS11 cells; assay type: cell-based; conditions: read-out: IB: NSD2-long DC50, 1−60 μM, 6 days
H3K36me1 = H3K36me1 immunoblot in KMS11 cells; assay type: cell-based
NSD1 = NSD1 (Homo sapiens, UniProt Q96L73); assay: Global proteomics and immunoblotting of NSD1 in U2OS cells; assay type: cell-based; conditions: 5 μM, 6 h proteomics, confirmed by immunoblotting
H3K36me2 [12] = conditions: KMS11 t(4;14) multiple myeloma cells; cited from earlier work

Chain of NSD1 (Q96L73 whole entry): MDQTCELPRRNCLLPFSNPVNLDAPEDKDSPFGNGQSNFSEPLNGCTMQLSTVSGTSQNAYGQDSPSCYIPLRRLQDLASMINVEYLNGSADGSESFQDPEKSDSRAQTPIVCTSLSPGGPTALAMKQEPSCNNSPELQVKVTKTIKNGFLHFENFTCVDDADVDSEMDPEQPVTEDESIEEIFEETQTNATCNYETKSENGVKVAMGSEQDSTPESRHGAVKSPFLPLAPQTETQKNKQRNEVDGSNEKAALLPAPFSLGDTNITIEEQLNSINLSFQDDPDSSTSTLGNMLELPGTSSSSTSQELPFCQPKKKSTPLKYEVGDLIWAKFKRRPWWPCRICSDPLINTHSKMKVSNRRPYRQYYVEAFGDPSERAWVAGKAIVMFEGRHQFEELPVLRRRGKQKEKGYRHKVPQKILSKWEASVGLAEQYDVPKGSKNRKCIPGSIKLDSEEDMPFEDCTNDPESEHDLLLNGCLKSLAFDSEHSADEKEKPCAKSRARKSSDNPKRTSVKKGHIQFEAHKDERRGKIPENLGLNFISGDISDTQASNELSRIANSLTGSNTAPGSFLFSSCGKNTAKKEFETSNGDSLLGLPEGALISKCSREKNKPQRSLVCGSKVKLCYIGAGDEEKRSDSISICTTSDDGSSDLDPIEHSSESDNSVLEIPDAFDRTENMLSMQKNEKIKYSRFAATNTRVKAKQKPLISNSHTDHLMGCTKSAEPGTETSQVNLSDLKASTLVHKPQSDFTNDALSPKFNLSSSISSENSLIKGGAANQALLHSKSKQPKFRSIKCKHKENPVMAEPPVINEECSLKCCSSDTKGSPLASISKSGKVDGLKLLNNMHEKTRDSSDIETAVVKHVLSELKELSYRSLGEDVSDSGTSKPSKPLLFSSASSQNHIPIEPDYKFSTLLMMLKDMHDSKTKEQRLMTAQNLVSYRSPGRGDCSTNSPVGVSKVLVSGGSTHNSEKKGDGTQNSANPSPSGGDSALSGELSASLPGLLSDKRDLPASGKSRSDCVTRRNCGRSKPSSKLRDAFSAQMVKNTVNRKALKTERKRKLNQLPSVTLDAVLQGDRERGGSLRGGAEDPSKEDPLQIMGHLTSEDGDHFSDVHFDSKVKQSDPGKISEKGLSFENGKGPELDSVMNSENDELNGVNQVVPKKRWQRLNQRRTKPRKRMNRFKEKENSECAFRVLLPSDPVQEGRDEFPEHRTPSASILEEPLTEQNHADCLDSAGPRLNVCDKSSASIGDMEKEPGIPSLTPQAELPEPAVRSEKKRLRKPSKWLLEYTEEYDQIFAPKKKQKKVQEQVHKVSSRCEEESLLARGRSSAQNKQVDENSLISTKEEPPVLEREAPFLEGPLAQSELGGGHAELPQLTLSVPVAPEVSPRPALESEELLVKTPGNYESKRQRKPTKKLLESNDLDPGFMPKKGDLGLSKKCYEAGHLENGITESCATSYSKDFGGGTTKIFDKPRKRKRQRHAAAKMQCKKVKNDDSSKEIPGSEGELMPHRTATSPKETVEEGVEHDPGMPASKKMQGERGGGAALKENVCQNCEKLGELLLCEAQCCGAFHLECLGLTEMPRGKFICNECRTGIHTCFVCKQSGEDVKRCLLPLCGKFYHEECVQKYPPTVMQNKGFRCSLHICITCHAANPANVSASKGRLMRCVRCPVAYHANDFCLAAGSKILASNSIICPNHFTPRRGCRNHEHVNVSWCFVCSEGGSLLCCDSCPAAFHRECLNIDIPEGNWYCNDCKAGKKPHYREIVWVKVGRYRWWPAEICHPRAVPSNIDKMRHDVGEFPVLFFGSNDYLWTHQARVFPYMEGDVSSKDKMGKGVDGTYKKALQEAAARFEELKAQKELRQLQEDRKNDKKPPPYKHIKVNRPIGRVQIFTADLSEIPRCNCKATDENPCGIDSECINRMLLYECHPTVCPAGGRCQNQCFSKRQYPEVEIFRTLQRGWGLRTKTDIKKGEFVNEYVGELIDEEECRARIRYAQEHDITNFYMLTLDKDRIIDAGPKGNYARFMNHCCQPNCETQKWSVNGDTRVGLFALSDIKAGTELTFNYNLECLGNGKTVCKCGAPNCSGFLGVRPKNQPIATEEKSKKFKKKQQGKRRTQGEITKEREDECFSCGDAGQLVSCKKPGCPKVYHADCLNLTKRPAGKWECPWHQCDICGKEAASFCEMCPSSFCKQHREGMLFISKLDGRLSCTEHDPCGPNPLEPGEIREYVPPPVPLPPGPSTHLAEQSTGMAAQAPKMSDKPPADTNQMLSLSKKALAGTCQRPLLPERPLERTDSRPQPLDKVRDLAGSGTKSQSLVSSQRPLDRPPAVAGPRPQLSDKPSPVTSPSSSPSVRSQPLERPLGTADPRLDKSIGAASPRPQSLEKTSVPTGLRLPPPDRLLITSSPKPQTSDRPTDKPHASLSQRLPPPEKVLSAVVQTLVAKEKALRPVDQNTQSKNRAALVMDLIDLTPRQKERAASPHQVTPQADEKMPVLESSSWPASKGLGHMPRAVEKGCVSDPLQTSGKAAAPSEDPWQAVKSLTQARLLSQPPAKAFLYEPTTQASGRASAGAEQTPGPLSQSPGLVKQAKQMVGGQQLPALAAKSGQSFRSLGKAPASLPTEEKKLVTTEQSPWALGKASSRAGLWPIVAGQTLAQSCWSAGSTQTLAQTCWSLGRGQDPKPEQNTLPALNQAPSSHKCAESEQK

Compound: NS(=O)(=O)OC[C@H]1C[C@@H](Nc2ccnc3cc(-c4cccc(SC(F)(F)F)c4)nn23)[C@H](O)[C@@H]1O [TAK243]
- effect of inhibitor on UNC8153-mediated NSD2 degradation (NSD2 [1]): prevented NSD2 degradation

Compound: O=C(CCCC[C@@H]1SC[C@@H]2NC(=O)N[C@@H]21)NCCOCCOCCOCCOCCOCCOCCOCCOCCOCCOCCOCCNC(=O)c1ccc(NC(=O)c2ccc(CN(C(=O)c3ccc4c(c3)OCC(=O)N4)C3CC3)cc2)cc1 [UNC7096]
- binding to NSD2 (in words) (NSD2-PWWP1): maintains binding to NSD2

Compound: NCCCCCCNC(=O)c1ccc(NC(=O)c2ccc(CN(C(=O)c3ccc4c(c3)OCC(=O)N4)C3CC3)cc2)cc1 [UNC8153]
- BRET signal between HaloTag-ubiquitin and NanoLuc-NSD2-PWWP1 [2]: increased BRET signals
- proliferative potential of HEK293 cells (HEK293): no significant changes in proliferative potential
- proliferative potential of U2OS cells (U2OS): no significant changes in proliferative potential
- H3K36me2 levels, time course (H3K36me2 [3]; 20 μM, 2−8 days, loss after 6 days, control 8 days): Significant loss of the H3K36me2 mark
- H3K36me2 levels, dose response (H3K36me2 [3]; 1−60 μM, 6 days): dose-dependent reduction of the H3K36me2 mark
- degradation of NSD3 (NSD3): not degraded
- H3K36me3 level (H3K36me3): decreased slightly
- selectivity for NSD2 over other NSD family members in MM1S cells (NSD family members): selectively degrades NSD2 over other NSD family members
- extent of degradation of NSD2-long 96 h after a single treatment (NSD2-long [4]): above 60%
- proliferation / cell viability of KMS11 cells (KMS11 cells [5]): did not result in a significant change in proliferation
- cell adhesion to Matrigel (KMS11 cells [6]): Significant antiadhesive effects
- proliferation of MM1S cells (MM1S cells): mild antiproliferative effect
- NSD2 and H3K36me2 modulation in RS411 cells (NSD2 and H3K36me2 [7]): similarly responsive
- proliferative potential of MDA-MB-231 cells (MDA-MB-231): no significant changes in proliferative potential
- NSD2 degradation 30 min after compound treatment (NSD2 [8]; 3 and 10 μM): ~ 40%
- hook effect in NSD2 reduction (NSD2 [8]; confirmed by immunoblotting): a hook effect occurs at high concentrations
- NSD2 and H3K36me2 modulation in MM1S cells (NSD2 and H3K36me2 [9]): similarly responsive
- selectivity of NSD2 degradation within the measurable proteome (NSD2 [10]): NSD2 was selectively degraded
- DC50 (NSD2-long [11]): 3.41 µM
- H3K36me1 level (H3K36me1): increase in H3K36 monomethylation
- degradation of NSD1 (NSD1): not degraded

Compound: O=C1COc2cc(C(=O)N(Cc3ccc(C(=O)Nc4ccncn4)cc3)C3CC3)ccc2N1 [UNC6934]
- global H3K36me2 levels in KMS11 cells (H3K36me2 [12]): remain unaltered

Compound: NS(=O)(=O)OC[C@@H]1C[C@@H](n2ccc3c(N[C@H]4CCc5ccccc54)ncnc32)C[C@@H]1O [MLN4924]
- effect of inhibitor on UNC8153-mediated NSD2 degradation (NSD2 [1]): prevented NSD2 degradation

Compound: CC(C)C[C@@H](C=O)NC(=O)[C@H](CC(C)C)NC(=O)[C@H](CC(C)C)NC(=O)OCc1ccccc1 [MG132] (Cbz-Leu-Leu-Leu-aldehyde)
- effect of inhibitor on UNC8153-mediated NSD2 degradation (NSD2 [1]): completely ablates NSD2 degradation
